Experimental findings from article PMC10844371 (Diabetologia, 2023) are described below.

One test has as its system human pancreatic islets. As to the kind of experiment: Glucagon secretion in human islets (ELISA). In kind it is cell-based. On the procedure:
Human pancreatic islets were isolated (with ethical approval and clinical consent) as previously described. Islets from the pancreases of 18 healthy donors and five donors with type 2 diabetes were used (see electronic supplementary material [ESM] Table 1; ESM Human islets checklist).
Mouse islets were used acutely, except for studies with PTX, wherein islets were treated overnight with the toxin. Human islets were maintained in culture for up to 48 h in RPMI medium containing 10% (vol./vol.) FCS, 1% (vol./vol.) penicillin/streptomycin and 5 mmol/l glucose. Experiments were conducted as previously described. Islets were incubated in 0.3 ml EC1 or EC2 media (ESM Table 2) supplemented with glucose and other reagents as indicated. Glucagon was determined by ELISA (Mercodia).
All data are reported, unless otherwise stated, as mean values ± SEM for the indicated number of experiments using islets from multiple mice. For hormone release studies, islets were isolated and pooled from 4–16 mice. These islets were then subdivided into groups of 12–20 size-matched islets. Each unique set of islets counted as an experiment with the experiments repeated on 2–4 days. Similarly, each unique group of human islets was treated as an experiment. […] In the Ca^2+ imaging and granule docking experiment, each cell represents an experiment making sure that cells from multiple donors/animals were used. For the in vivo experiments and the perfused pancreas, each mouse count represents an experiment. For two groupings, a t test was conducted. For multiple comparisons, one-way ANOVA was conducted. All statistical tests were performed using Graphpad Prism (version 9.1.0; graphpad.com). It was ascertained that the data were normally distributed.
In general terms: ELISA stands for enzyme-linked immunosorbent assay.

The subject of a further test is P/Q-type Ca^2+ channels. As to the kind of experiment: [Ca2+]i imaging of depolarisation-evoked Ca2+ entry in alpha cells (Gcg-GCaMP6f islets). In kind it is cell-based, mouse. As to conditions: 10 pmol/l, 70 mmol/l [K+]o, isradipine 10 μmol/l; n=139 cells from 4 mice. On the procedure:
For live-cell cytoplasmic free Ca^2+ concentration ([Ca^2+]i) imaging experiments, Gcg-GCaMP6f islets were immobilised to a poly-L-lysine-coated coverslip fixed in a custom-built imaging chamber filled with EC3 (ESM Table 2). [Ca^2+]i was measured in islets from mice expressing GCaMP6f in alpha cells. [Ca^2+]i imaging experiments were then performed using an inverted LSM 510 confocal microscope (Zeiss) controlled with ZEN Black (Zeiss), using a ×40/1.3 oil immersion objective. Time-lapse images were collected every 0.98 s with a frame size of 256×256 pixels, with the bath solution (EC3) perfused at a rate of 0.4 ml/min and heated to 37°C. GCaMP6f was excited by an argon laser (488 nm) and emission was collected at 510 nm.
[Ca^2+]i imaging videos were analysed using the Fiji imaging processing package. The mean fluorescence (F) of each region of interest was normalised to baseline signal (F0) and expressed as F/F0 before exporting into ClampFit (version 10.7; Molecular Devices, CA, USA), where baseline was corrected and AUC was calculated.

The next test deals with mouse alpha cells. As to the kind of experiment: TIRF imaging of docked secretory granules in mouse alpha cells. In kind it is cell-based. On the procedure: Cells were imaged using total internal reflection fluorescence (TIRF) microscopy (AxioObserver Z1 with a ×100/1.45 objective [Carl Zeiss] and a diode-pumped solid state laser at 491 nm). For these measurements, EC1 was used (ESM Table 2). Images from cells infected with preproglucagon promoter (PPPG)-neuropeptide Y (NPY)-enhanced green fluorescent protein (EGFP) virus were recorded using an electron-multiplying charge-coupled device camera (Photometrics Evolve) using ZEN blue. Single images of cells were acquired to measure the number of docked granules. Incoming and outgoing granules during visiting, docking and undocking were determined from multiple frame movies as described previously. Candidate docking or undocking events were found manually as granules that approached the TIRF field with an axial component and became laterally confined for at least two frames. We defined docking as granules that remained confined for at least 1 min. Visitors were those granules that remained for <1 min after appearing at the plasma membrane. Undocking was defined as slow movement of a previously docked granule away from its docking site. Granule density was calculated using a script that used the built-in ‘find maxima’ function in ImageJ (version 1.53c; http://rsbweb.nih.gov/ij) for spot detection.

Each structure is given as a SMILES string.

As to `CC[C@H](C)[C@H](NC(=O)[C@H](Cc1ccccc1)NC(=O)[C@H](CCC(=O)O)NC(=O)[C@H](CCCCN)NC(=O)[C@H](C)NC(=O)[C@H](C)NC(=O)[C@H](CCC(N)=O)NC(=O)CNC(=O)[C@H](CCC(=O)O)NC(=O)[C@H](CC(C)C)NC(=O)[C@H](Cc1ccc(O)cc1)NC(=O)[C@H](CO)NC(=O)[C@H](CO)NC(=O)[C@@H](NC(=O)[C@H](CC(=O)O)NC(=O)[C@H](CO)NC(=O)[C@@H](NC(=O)[C@H](Cc1ccccc1)NC(=O)[C@@H](NC(=O)CNC(=O)[C@@H](N)CCC(=O)O)[C@@H](C)O)[C@@H](C)O)C(C)C)C(=O)N[C@@H](C)C(=O)N[C@@H](Cc1c[nH]c2ccccc12)C(=O)N[C@@H](CC(C)C)C(=O)N[C@H](C(=O)N[C@@H](CCCCN)C(=O)NCC(=O)N[C@@H](CCCNC(=N)N)C(N)=O)C(C)C` [GLP-1(9–36)], the “inhibition of glucagon secretion” value with human pancreatic islets (human islets, 10 pmol/l, 1 mmol/l glucose) is ~ 50%. Besides, the glucagonostatic effect entry is recorded as “exerted a glucagonostatic effect” with human pancreatic islets (human islets, 6 mmol/l glucose) and “not at 20 mmol/l glucose” with human pancreatic islets (human islets, 20 mmol/l glucose). The “suppression of glucagon release in islets from donors with type 2 diabetes” value with human pancreatic islets (islets from donors with type 2 diabetes) was “loss”. The “reduction of depolarisation-induced P/Q-type Ca2+ channel-mediated Ca2+ entry” value in the test with P/Q-type Ca^2+ channels came to 34±4%. Moreover, the “time at which reduction of docked granules was maximal” value in the test on mouse alpha cells (10 pmol/l) is reported as 10 min. For the same compound, the “reduction of the number of docked granules” value in the test on mouse alpha cells (10 pmol/l, 1 mmol/l glucose, mouse alpha cells) is recorded as 40%. For the same compound, the “how granule density was reduced (docking, undocking, arrival)” value in the test with mouse alpha cells (10 pmol/l, during 15 min) was “inhibiting granule docking and stimulating granule undocking, while not affecting the rate of arrival”. Moreover, in the test on mouse alpha cells (L-168049 100 nmol/l), the “capacity to reduce docked granules in the presence of L-168049” value is recorded as “prevented”. In addition, in the test on mouse alpha cells (PTX 100 ng/ml for 16 h), the “capacity to reduce docked granules after PTX pretreatment” value is “prevented”. The “capacity to reduce docked granules in the presence of exendin(9–39)” value with mouse alpha cells (exendin(9–39) 100 nmol/l, 15 min after addition) is listed as “resistant”. Moreover, the “effect on granule docking in the presence of ω-agatoxin” value in the test with mouse alpha cells (ω-agatoxin 200 nmol/l) is “no additive effect”.
